In ChEMBL document CHEMBL1131973, “Asymmetric synthesis of novel quaternary alpha-hydroxy-delta-lactam dipeptide surrogates” (Bioorg Med Chem Lett, 1999):

target: Prothrombin (Homo sapiens, UniProt P00734)

Structure (SMILES) | Ki
N=C(N)N1CCC[C@H](NC(=O)CN2CCC[C@H](NS(=O)(=O)Cc3ccccc3)C2=O)C1O (stereo partly drawn) | 1 nM
N=C(N)N1CCC[C@H](NC(=O)CN2CCC[C@@](N)(Cc3ccccc3)C2=O)C1O (stereo partly drawn) | 1 nM
CCOC(=O)[C@]1(NS(=O)(=O)Cc2ccccc2)CCCN(CC(=O)N[C@H]2CCCN(C(=N)N)C2O)C1=O (stereo partly drawn) | 1 nM
